{"source": "paper PMC9847679", "about": "“The anti-breast cancer stem cell properties of gold(I)-non-steroidal anti-inflammatory drug complexes” (Chemical Science, 2022)", "key": {"MDA-MB-231 cells": {"tested_on": "MDA-MB-231 cells", "assay": "Monolayer cytotoxicity (MTT assay), MDA-MB-231 cells", "type": "cell-based, human", "conditions": "72 h incubation", "from_the_text": "(§1) Cell Lines and Cell Culture Conditions. The human mammary epithelial HMLER and HMLER-shEcad cell lines were kindly donated by Prof. R. A. Weinberg (Whitehead Institute, MIT). The human epithelial breast MCF10A, breast adenocarcinoma MDA-MB-231 and MDA-MB-468, murine epithelial breast 4T1, and embryonic kidney HEK 293 cell lines were acquired from American Type Culture Collection (ATCC, Manassas, VA, USA).\n(§2) HMLER, HMLER-shEcad, and MCF10A cells were maintained in Mammary Epithelial Cell Growth Medium (MEGM) with supplements and growth factors (BPE, hydrocortisone, hEGF, insulin, and gentamicin/amphotericin-B). MDA-MB-231, MDA-MB-468, 4T1, and HEK 293 cells were maintained in Dulbecco's Modified Eagle's Medium (DMEM) supplemented with fetal bovine serum (10 %) and penicillin/streptomycin (1 %). The cells were grown at 310 K in a humidified atmosphere containing 5% CO2.\n(§3) Monolayer Cytotoxicity Studies. Exponentially growing cells were seeded at a density of approximately 5 × 10^3 cells per well in 96-well flat-bottomed microplates and allowed to attach for 24 h prior to addition of compounds. Various concentrations of the test compounds (0.0004-100 μM) were added and incubated for 72 h at 37 °C (total volume 200 μl). Stock solutions of the compounds were prepared as 10 mM DMSO solutions and diluted using cell […]\nmedia. The final concentration of DMSO in each well was ≤1 %. […] The optical density was measured at 550 nm using a 96-well multiscanner autoreader. Absorbance values were normalised to (DMSO-containing) control wells and plotted as concentration of test compound versus % cell viability. […]\nh, the fluorescence of the solutions was read at 590 nm (λex = 560 nm). […]\nCellular Uptake. […] The number of cells was counted at this stage, using a haemocytometer. […] All samples were diluted 17-fold with water and analysed using inductively coupled plasma mass spectrometry (ICP-MS, Thermo Scientific ICAP-Qc quadrupole ICP mass spectrometer). Gold levels are expressed as mass of Au (ng) per million cells. […]"}, "MDA-MB-468 cells": {"tested_on": "MDA-MB-468 cells", "assay": "Monolayer cytotoxicity (MTT assay), MDA-MB-468 cells", "type": "cell-based, human", "conditions": "72 h incubation", "from_the_text": "as §1, §2, §3\nmedia. The final concentration of DMSO in each well was ≤1 %. After 72 h, 20 μl of MTT (4 mg mL-1 in PBS) was added to each well and the plates incubated for an additional 4 h at 37 °C. The media/MTT mixture was eliminated and DMSO (100 μl per well) was added to dissolve the formazan precipitates. The optical density was measured at 550 nm using a 96-well multiscanner autoreader. Absorbance values were normalised to (DMSO-containing) control wells and plotted as concentration of test compound versus % cell viability. IC50 values were interpolated from the resulting dose dependent curves. The reported IC50 values are the average of three independent experiments (n = 18). […]\nCellular Uptake. […]"}}}
{"molecule": "COc1ccc2c(c1)c(CC(=O)[O][Au][PH](c1ccccc1)(c1ccccc1)c1ccccc1)c(C)n2C(=O)c1ccc(Cl)cc1", "note": "[complex 1]", "values": [{"measurement": "IC50", "setting": "MDA-MB-231 cells", "value": "3.94 ± 0.3", "unit": "µM"}, {"measurement": "IC50", "setting": "MDA-MB-468 cells", "value": "4.47 ± 0.17", "unit": "µM"}]}
